Holding throughout (type): biochemical
One test deals with mu opioid receptor (MOR) (Homo sapiens, UniProt P35372). The experiment in a line: SPA-based GTP-γ-S binding assay, antagonist mode, mu opioid receptor. The conditions noted are these: antagonist assay against agonist DAMGO 1 micromolar; membranes; Kb by Cheng-Prusoff equation. The method, then:
(§1) A scintillation proximity assay (SPA) based GTP-γ-S^35 assay format was developed based on previous opioid (Emmerson et al., J. Pharm Exp Ther 278, 1121, 1996; Horng et al., Society for Neuroscience Abstracts, 434.6, 2000) and muscarinic (DeLapp et al., JPET 289, 946, 1999) assay formats. Membranes were resuspended in 20 mM HEPES, 100 mM NaCl, 5 mM MgCl2, 1 mM DTT, and 1 mM EDTA. […] of GTP-γ-[35S], compound, membrane suspension (20 microgram/well), and wheat germ agglutinin coated SPA beads (1 mg/well) were added to clear bottom 96 well assay plates. GDP ([…]) was added to the membrane solution prior to addition to the assay plates. Plates were sealed and incubated for four hours at room temperature then placed in a refrigerator overnight to allow the beads to settle. Signal stability at 4° C. was determined to be >60 hours. Plates were warmed to room temperature and counted in a Wallac Microbeta scintillation counter. For antagonist assays, specific agonists were added at the following concentrations: (MOR) DAMGO 1 micromolar, (DOR) DPDPE 30 nM, (KOR) U69593 300 nM. Kb's were determined by Cheng-Prusoff equation (see Cheng and Prusoff, Biochem. Pharmacol. 22, 3099, 1973).
(GTPγS resists hydrolysis and so accumulates on activated G proteins.)

Test [1] concerns the target kappa opioid receptor (KOR) (Homo sapiens, UniProt P41145). Kind of test: SPA-based GTP-γ-S binding assay, antagonist mode, kappa opioid receptor. The conditions noted are these: antagonist assay against agonist U69593 300 nM; membranes; Kb by Cheng-Prusoff equation. The method, then:
as §1

The target in test [2] is delta opioid receptor (DOR) (Homo sapiens, UniProt P41143). The experiment in a line: SPA-based GTP-γ-S binding assay, antagonist mode, delta opioid receptor. To be noted: antagonist assay against agonist DPDPE 30 nM; membranes; Kb by Cheng-Prusoff equation. The method, then:
as §1

Structures are written as SMILES.

Sequence of mu opioid receptor (MOR) (P35372 whole entry): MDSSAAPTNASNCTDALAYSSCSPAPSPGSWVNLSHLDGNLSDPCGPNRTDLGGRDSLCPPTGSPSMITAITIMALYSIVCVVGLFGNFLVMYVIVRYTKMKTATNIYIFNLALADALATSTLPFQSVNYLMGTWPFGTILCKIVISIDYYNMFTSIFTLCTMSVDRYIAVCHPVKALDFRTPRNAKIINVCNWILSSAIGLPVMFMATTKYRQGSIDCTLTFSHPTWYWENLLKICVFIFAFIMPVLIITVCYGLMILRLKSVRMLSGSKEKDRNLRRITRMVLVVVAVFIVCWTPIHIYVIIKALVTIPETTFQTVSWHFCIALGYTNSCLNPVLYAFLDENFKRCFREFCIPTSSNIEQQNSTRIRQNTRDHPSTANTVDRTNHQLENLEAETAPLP
Sequence of kappa opioid receptor (KOR) (P41145 whole entry): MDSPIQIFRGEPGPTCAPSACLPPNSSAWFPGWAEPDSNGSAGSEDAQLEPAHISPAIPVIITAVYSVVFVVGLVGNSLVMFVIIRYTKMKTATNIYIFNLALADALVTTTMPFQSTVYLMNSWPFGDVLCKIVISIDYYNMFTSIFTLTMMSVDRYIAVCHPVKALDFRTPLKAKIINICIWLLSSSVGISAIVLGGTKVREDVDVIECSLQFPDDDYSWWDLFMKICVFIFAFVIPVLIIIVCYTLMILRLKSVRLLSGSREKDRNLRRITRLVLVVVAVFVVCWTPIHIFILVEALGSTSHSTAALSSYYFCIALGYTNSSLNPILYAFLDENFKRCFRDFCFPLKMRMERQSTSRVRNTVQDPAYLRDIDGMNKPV
Sequence of delta opioid receptor (DOR) (P41143 whole entry): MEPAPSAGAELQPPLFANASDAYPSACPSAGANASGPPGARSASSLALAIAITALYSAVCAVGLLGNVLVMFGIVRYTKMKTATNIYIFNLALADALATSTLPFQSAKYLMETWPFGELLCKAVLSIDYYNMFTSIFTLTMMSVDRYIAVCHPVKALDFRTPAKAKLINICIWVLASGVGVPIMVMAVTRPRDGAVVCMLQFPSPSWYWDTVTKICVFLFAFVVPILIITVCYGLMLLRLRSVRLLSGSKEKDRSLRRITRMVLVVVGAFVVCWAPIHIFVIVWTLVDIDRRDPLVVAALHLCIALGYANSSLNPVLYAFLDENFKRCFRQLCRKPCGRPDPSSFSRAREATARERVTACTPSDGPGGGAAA

Broadly, the Kb is the equilibrium dissociation constant of an antagonist, usually derived from a functional assay. A higher Kb goes with a less potent antagonist. Regarding `CC(C)CCN(C)C1CCc2cc(Oc3ccc(C(N)=O)cn3)ccc21` (stereo not drawn) [Example 20], the Kb at mu opioid receptor (MOR) came to 0.73 nM; in test [1], 2.5 nM; in test [2], 13.5 nM.
The matching figures for `NC(=O)c1ccc(Oc2ccc3c(c2)CCC3NCCc2ccc(F)cc2)nc1` (stereo not drawn) [Example 90, 6-{1-[2-(4-Fluoro-phenyl)-ethylamino]-indan-5-yloxy}-nicotinamide]: 0.4 nM, 9.2 nM and 14.6 nM.
As for `CC(C)CCNCC1CCCc2c(Oc3ccc(C(N)=O)cn3)cccc21` (stereo not drawn) [Example 192, 6-{5-[(3-Methyl-butylamino)-methyl]-5,6,7,8-tetrahydro-naphthalen-1-yloxy}-nicotinamide], the antagonist dissociation constant (Kb) was found to be 1.1 nM at mu opioid receptor (MOR), 11.8 nM in test [1] and 9.4 nM in test [2].
Turning to `NC(=O)c1ccc(Oc2cccc3c2CCCC3CNCCC2CCCCC2)nc1` (stereo not drawn) [Example 195, 6-{5-[(2-Cyclohexyl-ethylamino)-methyl]-5,6,7,8-tetrahydro-naphthalen-1-yloxy}-nicotinamide], the Kb on mu opioid receptor (MOR) came to 0.5 nM; in test [1], 76 nM; in test [2], 7.9 nM.
The matching figures for `CC(C)(C)CCNCC1CCCc2c(Oc3ccc(C(N)=O)cn3)cccc21` (stereo not drawn) [Example 202, 6-{5-[(3,3-Dimethyl-butylamino)-methyl]-5,6,7,8-tetrahydro-naphthalen-1-yloxy}-nicotinamide]: 0.65 nM, 5.79 nM and 4.09 nM.

The record behind these values is patent US8101638B2, “6-substituted nicotinamide derivatives as opioid receptor antagonists” (Eli Lilly and Company, priority 2003, dated 2012).
